# In US8889112B2, “Ophthalmic formulations including selective alpha 1 antagonists” (Ocularis Pharma, LLC, priority 1999, dated 2014):
# Values joined by “and” are separate entries in the source; they are usually repeats but may differ in a detail not shown here. Identical values can stand only once. Counter-ions that a name gives are not always drawn. Like-named read-outs stand apart in the source and are kept apart here.
# What was measured:
# human eye [1] = conditions: for Effectiveness in reducing pupil dilation in dim light: topical, phenoxybenzamine, prazosin, tolamine 0.1% to 5%, labetalol S,S and S,R isomers 0.1% to 2%; for Duration of effect: single administration per day, eye drop or drop on soft contact lens
# Procedure: A preferred concentration of about 1 to about 5 milligrams of active agent per cc of total formulation volume in an embodiment may be administered by placing a single drop on a moist soft contact lens, and inserting the lens for about 15 minutes to about 45 minutes at one time per day. […] The drop may be administered in a one to five milligram per cc concentration directly to the eye as a recommended daily or BID dosing according to an embodiment of the present invention.
# A 5 mg/ml vial of phentolamine was diluted in an artificial tear formulation to approximately 6.0 cc of solution.
# Labetalol, a potent beta adrenergic receptor antagonist, consists of four isomers, two of which have some alpha 1 antagonist activity.
# human eye [2] = assay: Effect of alpha adrenergic receptor antagonists on pupil dilation (Table 1, patients); assay type: in vivo; conditions: for Effect on pupil diam. in darkness (mm): pupil diameter after drug, from 7.5 mm before, topical, 5 mg/ml (phentolamine 3.3 mg/ml via soft contact lens for 30 minutes)
# Excerpt: However, only the imidazolines obtain the desired reduction in dilation without causing excessive redness of the eye. In addition, the present invention in an embodiment provides a sub-class of alpha antagonists that can act as a sole active component in an ophthalmic medication to effectively reduce pupil light reflex while providing minimal, if any, redness response upon application thereof to the eye. In an embodiment, the sub-class of alpha antagonists includes alpha 1 selective antagonists, including alpha 1a selective antagonists, such as tamsulosin.
# human eye [3] = conditions: cited from earlier work
# human eye [4] = assay: Effect of phentolamine eye drops on visual acuity in dim light (Table 3); assay type: in vivo; conditions: one line per subject
# Excerpt: The results illustrate the benefit that is derived from reducing pupil diameter by 1 mm or more and/or pupil area by 20% or more in dim light conditions pursuant to an embodiment. In this regard, a significant increase in spherical aberrations is typically found per each one millimeter of increase in pupil size diameter above 5 mm. These aberrations generally increase as a function of severity of the refractive error, particularly increases in the myopic spherical equivalent of refractive error. Coma may increase, as well as other higher order aberrations, as pupil size diameter increases, again especially as refractive error increases. Thus, a reduction in pupil diameter by 1 mm or more and/or pupil area by 20% or more can effectively act to improve vision in dim light conditions. As previously discussed, the present invention contemplates the use of a single active agent, preferably an alpha 1a selective antagonist, that can optimize pupil light reflex while minimizing, if not eliminating, redness. [table]
# human eye [5] = assay: Effect of phentolamine 0.35% on pupil diameter in dim and bright light (Table 2); assay type: in vivo
# [6] = duration of effect on pupil, 5 mg/ml (phentolamine 3.3 mg/ml via soft contact lens)
# [7] = pupil diameter after 3.3 mg/cc, single drop on soft contact lens placed for 30 minutes, one line per subject
# [8] = pupil diameter before drug (baseline), one line per subject
molecule,measurement,setting,value
"Cc1ccccc1N1CCN(CCc2nnc3n2CCCC3)CC1 [Dapiprazole, 5,6,7,8 tetrahydro-3-[2-(4-o,tolyl-1-piperazinyl)ethyl]-8-triazolo[4,3-a]pyridine hydrochloride]",Redness / vasodilation of the eye,human eye [1]; in vivo,unacceptably high levels of eye redness with severe blood vessel dilation
same,Effectiveness in reducing pupil dilation in dim light,human eye [1],minimal if any clinically significant effect
same,Duration,human eye [2]; [6],5 to 12 h
same,Effect on pupil diam. in darkness (mm),human eye [2],7.5 -> 7 mm
same,Redness and chemosis upon instillation,human eye [3]; 0.5% solution,substantial increased redness and conjunctival chemosis
same,Effectiveness in reducing pupil size in dim light,"human eye [3]; topical, compared to phentolamine and phenoxybenzamine, U.S. Pat. No. 6,515,006",not as effective
CC(CCc1ccccc1)NCC(O)c1ccc(O)c(C(N)=O)c1 (stereo not drawn) [Labetalol],Effectiveness in reducing pupil dilation in dim light,human eye [1],modestly effective
CC(COc1ccccc1)N(CCCl)Cc1ccccc1 (stereo not drawn) [Phenoxybenzamine],Redness / vasodilation of the eye,human eye [1]; topical application as only active compound,induce much more vasodilation and congestion
same,Redness / vasodilation of the eye,"human eye [1]; topical application as only active compound, listed as phenoxybenzamine",unacceptably high level of redness
same,Effectiveness in reducing pupil dilation in dim light,human eye [1],have not been as effective as phentolamine
same,Duration (hrs),human eye [2]; [6],≧20 hrs
same,Effect on pupil diam. in darkness (mm),human eye [2],7.5 -> 5.5 mm
Cc1ccc(N(CC2=NCCN2)c2cccc(O)c2)cc1 [Phentolamine],Redness / vasodilation of the eye,human eye [1]; in vivo,"very slight, transient redness"
same,Duration of effect,human eye [1],20 to 24 h
same,Duration of effect,human eye [1]; listed as phentolamine,20 to 24 h
same,Duration,human eye [2]; [6],20 to 40 h
same,Effect on pupil diam. in darkness (mm),human eye [2],7.5 -> 4.0 mm
same,Pupil Diameter in Dim Light Post-Drug mm,human eye [4]; after phentolamine eye drops,6.9 mm (2×) and 7.1 mm (2×) and 5.9 mm (2×) and 7.5 mm and 6.5 mm and 7.4 mm
same,Pupil Diameter in Dim Light Pre-Drug mm,human eye [4]; before drug (baseline),7.7 mm and 8.5 mm and 7.9 mm (3×) and 7.8 mm (2×) and 8.2 mm (2×)
same,Pupil Diameter Change mm,"human eye [4]; reduction in dim light, pre minus post",0.8 mm (2×) and 1.4 mm (2×) and 2.0 mm and 0.9 mm and 0.4 mm and 1.1 mm and 1.9 mm
same,Pupil Area Change %,human eye [4]; reduction of pupil area in dim light,20% and 30% and 44% and 22% and 10% and 25% and 32% and 19% and 43%
same,Dim Light Contrast Post-Drug,human eye [4]; visual acuity after phentolamine eye drops,20/25 and 20/22 and 20/20 and 20/24 and 20/38 and 20/21 (2×) and 20/32 and 20/50
same,Dim Light Contrast Pre-Drug,human eye [4]; visual acuity before drug (baseline),20/29 (2×) and 20/35 and 20/32 (2×) and 20/63 and 20/38 and 20/40 and 20/53
same,Bright Light Post mm,human eye [5]; [7],3.0 mm (2×) and 2.5 mm (3×)
same,Dim Light Post mm,human eye [5]; [7],4.0 mm (3×) and 3.0 mm and 3.5 mm
same,Bright Light Pre mm,human eye [5]; [8],4.0 mm and 3.0 mm (3×) and 3.5 mm
same,Dim Light Pre mm,human eye [5]; [8],7.5 mm (2×) and 3.5 mm and 4.0 mm and 7.0 mm
same,halos reduced,"human eye [5]; subject, post drug",70% reduced; depth
COc1cc2nc(N3CCN(C(=O)c4ccco4)CC3)nc(N)c2cc1OC [Prazosin],Duration,human eye [2]; [6],5 to 12 h
same,Effect on pupil diam. in darkness (mm),human eye [2],7.5 -> 6 mm
CC[C@@H]1C(=O)OC[C@@H]1Cc1cncn1C [pilocarpine],Duration of miotic effect,human eye [3]; in vivo,only a few hours
same,Side effects,human eye [3]; in vivo,"brow ache, ciliary muscle contraction and pseudo myopia, excessive dimness when first applied"
same,Pupil size when first applied,human eye [3]; usually,less than 2 mm
Tolamine,Effectiveness in reducing pupil dilation in dim light,human eye [1],slight pupillary reduction in dilation in dim light but appears to be less effective than phentolamine
same,Duration,human eye [2]; [6],5 to 12 h
same,Effect on pupil diam. in darkness (mm),human eye [2],7.5 -> 6 mm
